How the values were obtained:
Type in all cases: in vivo
[1] = system: Amaranthus retroflexus (AMARE); test: Example B post-emergence herbicidal activity, glasshouse pot test; details: 312 h, rate 250 g/ha, evaluated after 13 days, read-out: Post-emergence activity AMARE (100=total damage to plant; 0=no damage to plant)
Procedure, shortened: (§1)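 Pots, standard soil; spray at day 1 (pre) or day 8 (post); a.i. formulated in acetone/water 50:50 + 0.5% Tween 20; 24/16 °C, 14 h light, 65% RH, watered twice daily; visual rating at 13 d (0 = no damage, 100 = total damage).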

Setaria faberi (SETFA) [2] = test: as above; details: 312 h, rate 250 g/ha, evaluated after 13 days, read-out: Post-emergence activity SETFA (100=total damage to plant; 0=no damage to plant)
Procedure, shortened: as §1

[3] = system: Alopecurus myosuroides (ALOMY); test: as above; details: 312 h, rate 250 g/ha, evaluated after 13 days, read-out: Post-emergence activity ALOMY (100=total damage to plant; 0=no damage to plant)
Procedure, shortened: as §1

[4] = system: Echinochloa crus-galli (ECHCG); test: as above; details: 312 h, rate 250 g/ha, evaluated after 13 days, read-out: Post-emergence activity ECHCG (100=total damage to plant; 0=no damage to plant)
Procedure, shortened: as §1

Avena fatua (AVEFA) [5] = test: as above; details: 312 h, rate 250 g/ha, evaluated after 13 days, read-out: Post-emergence activity AVEFA (100=total damage to plant; 0=no damage to plant)
Procedure, shortened: as §1

[6] = system: Amaranthus retroflexus (AMARE); test: Example B pre-emergence herbicidal activity, glasshouse pot test; details: 312 h, rate 250 g/ha, evaluated after 13 days, read-out: Pre-emergence activity AMARE (100=total damage to plant; 0=no damage to plant)
Procedure, shortened: as §1

Setaria faberi (SETFA) [7] = test: as above; details: 312 h, rate 250 g/ha, evaluated after 13 days, read-out: Pre-emergence activity SETFA (100=total damage to plant; 0=no damage to plant)
Procedure, shortened: as §1

[8] = system: Alopecurus myosuroides (ALOMY); test: as above; details: 312 h, rate 250 g/ha, evaluated after 13 days, read-out: Pre-emergence activity ALOMY (100=total damage to plant; 0=no damage to plant)
Procedure, shortened: as §1

[9] = system: Echinochloa crus-galli (ECHCG); test: as above; details: 312 h, rate 250 g/ha, evaluated after 13 days, read-out: Pre-emergence activity ECHCG (100=total damage to plant; 0=no damage to plant)
Procedure, shortened: as §1

Avena fatua (AVEFA) [10] = test: as above; details: 312 h, rate 250 g/ha, evaluated after 13 days, read-out: Pre-emergence activity AVEFA (100=total damage to plant; 0=no damage to plant)
Procedure, shortened: as §1

Compound	pest or weed control at 250 g/ha [1] [%]	pest or weed control at 250 g/ha (Setaria faberi (SETFA) [2]) [%]	pest or weed control at 250 g/ha [3] [%]	pest or weed control at 250 g/ha [4] [%]	pest or weed control at 250 g/ha (Avena fatua (AVEFA) [5]) [%]	pest or weed control at 250 g/ha [6] [%]	pest or weed control at 250 g/ha (Setaria faberi (SETFA) [7]) [%]	pest or weed control at 250 g/ha [8] [%]	pest or weed control at 250 g/ha [9] [%]	pest or weed control at 250 g/ha (Avena fatua (AVEFA) [10]) [%]
CCc1ccc(-c2ccc(Cl)c(F)c2)cc1C1=C(O)C(C)(C)SC(C)(C)C1=O (single isomer, unassigned) [Compound C-5]	0	90	70	100	70	0	0	0	0	0
Cc1ccc(-c2ccc(Cl)cc2Cl)cc1C1=C(O)C(C)(C)SC(C)(C)C1=O [Compound C-6]	40	30	20	60	0	0	0	0	0	0
CCOC[C@]12CC[C@H](O1)C(=O)C(c1cc(-c3ccc(Cl)cc3)ccc1CC)=C2O (single isomer, unassigned) [Compound A-124]	20	100	80	100	90	0	100	50	70	60
CCc1ccc(-c2ccc(Cl)cn2)cc1C1=C(O)C(C)(C)OC(C)(C)C1=O [Compound A-150]	0	100	90	100	80	0	100	90	100	40
CCc1ccc(-c2ccc(Cl)cc2)cc1C1=C(O)[C@@]2(C)CC[C@](C)(O2)C1=O (single isomer, unassigned) [Compound A-83]	0	100	80	100	80	0	100	50	90	40
CCc1ccc(-c2ccc(Cl)c(C#N)c2)cc1C1=C(O)C(C)(C)OC(C)(C)C1=O [Compound A-69]	90	100	70	100	90	0	80	0	60	0
CC1(C)OC(C)(C)C(O)=C(c2cc(-c3ccc(Cl)cc3)ccc2Br)C1=O [Compound A-149]	20	100	90	100	70	0	90	60	100	30
CCc1ccc(-c2ccc(Br)cc2)cc1C1=C(O)C(C)(C)OC(C)(C)C1=O [Compound A-81]	0	100	100	100	100	0	100	80	100	90
CCc1ccc(-c2ccc(Cl)c(F)c2)cc1C1=C(O)C(C)(C)[S+]([O-])C(C)(C)C1=O (centres unmarked) [Compound C-12]	0	90	80	90	90	0	90	0	20	90
COc1ccc(-c2ccc(Cl)cc2)cc1C1=C(O)C(C)(C)OC(C)(C)C1=O [Compound A-90]	0	90	40	90	20	0	0	0	0	0
CCOC[C@]12CC[C@H](O1)C(=O)C(c1cc(-c3ccc(Cl)c(F)c3)ccc1CC)=C2O (single isomer, unassigned) [Compound A-126]	0	100	70	100	90	0	100	30	80	90
CCc1ccc(-c2ccc(Cl)nc2)cc1C1=C(OC(C)=O)C(C)(C)OC(C)(C)C1=O [Compound D-22]	0	100	90	100	100	0	100	60	100	50
CCc1ccc(-c2ccc(Cl)c(Cl)c2)cc1C1=C(O)[C@]2(C)O[C@@H](CC2COC)C1=O (some centres unmarked) [Compound A-130]	0	100	40	100	40	0	90	20	40	20
CCc1ccc(-c2ccc(Cl)nc2C)cc1C1=C(O)C(C)(C)OC(C)(C)C1=O [Compound A-77]	0	90	70	100	60	0	20	10	0	0
CCc1ccc(-c2cc(Cl)c(Cl)cc2Cl)cc1C1=C(O)C(C)(C)OC(C)(C)C1=O [Compound A-144]	40	100	100	100	100	30	100	100	90	80
CCc1ccc(-c2c(Cl)cc(Cl)cc2Cl)cc1C1=C(O)C(C)(C)OC(C)(C)C1=O [Compound A-74]	70	90	0	90	0	10	50	20	80	0
CCc1ccc(-c2ccc(Cl)cc2F)cc1C1=C(O)C(C)(C)OC(C)(C)C1=O [Compound A-66]	10	100	20	100	30	0	50	0	60	40

From patent US8680012B2, “4-phenyl-pyrane-3,5-diones,4-phenyl-thiopyrane-3,6-diones and cyclohexanetriones as novel herbicides” (Syngenta Crop Protection LLC, priority 2006, dated 2014)
